“Also recorded” adds a separate entry of the source. Like-named read-outs stand apart in the source and are kept apart here.
Tests used:
Jurkat cells [1] = assay: Cell adhesion assay by addition, Jurkat cells; format: cell-based, human; settings: Jurkat cells; for cell-adhesion promoting activity of adhesamine derivatives: FIG. 6
Description: 1 μL each of an aqueous solution of adhesamine (1), Type I collagen, poly-L-lysine hydrochloride, poly-L-ornithine hydrobromide, and fibronectin at a concentration of 50, 500, and 5000 μg/ml, was added to 96-well plate. 100 μL of HepG2 suspension (4×10^5 cells/mL) was added to each well. After 3-hour incubation at 37° C., non-adherent cells were removed by washing each well with PBS three times, and the attached cells were counted with a Neubauer counting chamber (Digital Bio). For Jurkat cells, 100 μL of cell suspension was added to each well at a density of 1×10^6 cells/ml. After 5-hour incubation at 37° C., non-adhered cells were removed by washing each well with PBS twice, and the attached cells were counted with a Neubauer counting chamber (Digital Bio). To calculate adhesion rates, firstly seeded cell numbers were assigned a value of 100%. As control tests, the same tests were conducted using wells supplied with only 1 μL of DMSO. Each assay was conducted in triplicate, and the means and standard derivations were calculated.
The comparison between adhesamine and its derivatives regarding cell adhesion promotion activity was conducted using Jurkat cells by way of reagent addition assay. 1 μL each of DMSO solutions of the compounds having concentrations of 60, 600, and 6000 μM were added to 96-well plates. The wells were supplied with 100 μL each of Jurkat cell suspensions (1×10^6 cells/mL). After 5-hour incubation at 37° C., non-adhered cells were removed by washing each well with PBS twice, and the attached cells were counted with a Neubauer counting chamber (Digital Bio). To calculate adhesion rates, firstly seeded cell numbers were assigned a value of 100%. As control tests, the same tests were conducted using well plates supplied with only 1 μL of DMSO. Each assay was conducted in triplicate, and the means and standard derivations were calculated.
However, since HepG2 cells have an intrinsic propensity to adhere to plastic tissue-culture plates, a test was conducted to determine whether the same effect was also obtained in the Jurkat cell line and human T-lymphocytes that are floating cells. Remarkably, 30% and 60% of the Jurkat cells attached to a culture plate in the presence of 6 and 60 μM of adhesamine, respectively (FIG. 1D). Removal of adhesamine by washing the plate twice with PBS detached the cells. 93% of Jurkat cells were released from the surface of a culture plate 24 hour after washing (FIG. 2). […] Simply adding adhesamine to the medium promoted adhesion of Jurkat cells onto culture plates, but not to each other.

[2] = tested on: adhesamine (6 μM)-induced cell attachment of Jurkat cells; assay: Squelching assay; format: cell-based, human; settings: for IC50: adhesamine 6 μM, Jurkat cells
Description: Adhesamine (1: 0.6 nmol) and each glycosaminoglycan (GAG) (heparin, heparan sulfate, chondroitin sulfate, keratan sulfate, hyaluronic acid, and heparin oligosaccharides) ranging from 0.006 to 12 nmol were stirred in 10 μL of 50 mM phosphate buffer (pH 6.0) containing 100 mM NaCl and 1% DMSO with a vortex mixer at room temperature for 30 min. Thereafter, these mixtures were transferred to 96-well plates, and 90 μL of Jurkat cell suspension (1×10^5 cells/mL) was added to each well. After 5-hour incubation at 37° C., non-adherent cells were removed by washing each well with PBS twice, and the attached cells were counted with a Neubauer counting chamber (Digital Bio). To calculate the inhibition rates, the number of attached cells in the wells supplied only with 1% DMSO or GAG of each concentration was subtracted from the number of cells in which the cell adhesions were observed after addition of the samples. The inhibition rate is expressed as follows.
wherein AC+(−)GAGs, +(−)adhesamine expresses the number of adhered cells in the presence (absence) of GAGs and adhesamine.
IC50 values are defined as the concentrations of GAGs required for 50% inhibition of the adhesamine (6 μM)-induced cell attachment. The results of the squelching assays were plotted as percentage of inhibition vs. log (GAG), and IC50 values were determined from curve fits of multiple independent experiments.

HepG2 cells = assay: Confocal imaging of fluorescent compounds; format: cell-based; settings: for localization of the fluorescent compound: HepG2, 6 μM, 3 hours
Description: HepG2 cells were incubated with Compound 4 (6 μM, A and C) or Compound 5 (6 μM, B and D) for 3 hours after seeding.
In (A) and (B), Jurkat cells (A) or HepG2 cells (B) were pretreated with 0.02 units/mL of heparinase, heparitinase I, and heparitinase II, or 0.1 units/mL of protease-free chondroitinase ABC in a serum-free culture medium for 1 hour at 37° C. before evaluating cell adhesion. The treated cells were seeded onto adhesamine-added or fibronectin-coated plastic wells. The attached cells were counted at 5 hours after seeding. The concentrations of adhesamine and fibronectin were 6 μM and 5 μg/mL, respectively. Each point represents the means±SD. (C) and (D) show localization of Compound 4 in HepG2 cells treated with heparinase/heparitinase I/heparitinase II (C) or chondroitinase ABC (D).
HepG2 cell suspension (100 μL) were seeded on a 96-well plate (Greiner bio-one) at a density of 2×10^5 cells/mL, and the cells were incubated with Compounds 4 and 5 for 3 hours at 37° C., at a concentration of 6 μM. After incubation, medium exchange was performed, and the cells were then subjected to fluorescent microscopic observation. Microscopic images of the cells were captured by a Yokogawa CSU22 confocal fluorescence microscope with 405 nm laser excitation.

[3] = tested on: extracellular signal-regulated kinase (ERK); assay: Western blotting, ERK activation; format: cell-based, human; settings: Jurkat, excess amounts of heparin
Description: (§1) Jurkat cells were treated with adhesamine (6 μM) in a serum-poor culture medium (0.1% FBS) for the indicated periods of time. The treated cell lysates were Western blotted with antibodies against FAK phospho-tyrosine^397 (pFAK), FAK, ERK1/2 phospho-threonine^202/tyrosine^204 (pERK) or ERK. In (B), Jurkat cells were incubated for 5 hours with varied concentrations of adhesamine or poly-L-lysine. The cell lysates were Western blotted with antibodies against FAK phospho-tyrosine^397 or FAK. […] The concentration of adhesamine (1) was 6 μM.
Jurkat cells were maintained in an RPMI medium containing 10% FBS. 5-6 million Jurkat cells were dispensed to a well of a 6-well plate in a final volume of 2 mL, and then incubated at 37° C. for 0-5 hours in the presence of adhesamine or poly-L-lysine. Non-adherent cells were removed and pelleted, and the remaining adherent cells were lysed in a 125 mM Tris-HCl buffer (pH 6.8) containing 4% SDS, 10% glycerol, 0.006% bromophenol blue, and 1.8% β-mercaptoethanol. The adherent cell homogenate was combined with pelleted nonadherent cells from the same well, and the combined sample was boiled for 5 minutes. The samples were separated by SDS-PAGE and electroblotted onto a nitrocellulose membrane. The membranes were blocked in 1% BSA and incubated with primary antibody, and then with horseradish peroxidase-conjugated secondary antibody. […]

[4] = tested on: focal adhesion kinase (FAK); assay: Western blotting, FAK activation; format: cell-based, human; settings: Jurkat, adhesamine 6 μM, excess heparin or RGD peptide (100 μg/mL)
Description: as §1
Jurkat cells were maintained in an RPMI medium containing 10% FBS. 5-6 million Jurkat cells were dispensed to a well of a 6-well plate in a final volume of 2 mL, and then incubated at 37° C. for 0-5 hours in the presence of adhesamine or poly-L-lysine. Non-adherent cells were removed and pelleted, and the remaining adherent cells were lysed in a 125 mM Tris-HCl buffer (pH 6.8) containing 4% SDS, 10% glycerol, 0.006% bromophenol blue, and 1.8% β-mercaptoethanol. The adherent cell homogenate was combined with pelleted nonadherent cells from the same well, and the combined sample was boiled for 5 minutes. The samples were separated by SDS-PAGE and electroblotted onto a nitrocellulose membrane. The membranes were blocked in 1% BSA and incubated with primary antibody, and then with horseradish peroxidase-conjugated secondary antibody. The blots were developed using the enhanced chemiluminescence technique.

Jurkat cells [5] = assay: Cytoskeletal disruption, cell adhesion; format: cell-based, human; settings: for effect on adhesamine-mediated cell adhesion: adhesamine 6 μM, cytochalasin B 0-100 μM or nocodazole 0-0.5 μM; for effect on fibronectin-mediated cell adhesion: fibronectin-coated plate; for effect on cell attachment induced by poly-L-lysine: poly-L-lysine-coated plate
Description: Jurkat cells were adhered to plastic plates by adding adhesamine thereto in the presence of nocodazole (a tubulin inhibitor) or cytochalasin B (an actin inhibitor). Both nocodazole and cytochalasin inhibited adhesamine-induced cell adhesion, as observed in the cells adhered to a fibronectin-coated plate. […] The concentration of adhesamine was 6 μM. The fibronectin- or poly-L-lysine-coated plates were prepared by pretreating wells of 96-well plates with fibronectin or poly-L-lysine (1 ng/well).
Jurkat cells (5×10^4) were cultured in 100 μL of RPMI, and incubated with cytochalasin B (0-100 μM) or nocodazole (0-0.5 μM) at 37° C. The treated cells were then assayed for their responses to adhesamine (6 μM). Their responses to fibronectin- or poly-L-lysine-coated plates were also evaluated. The coated plates were prepared by pretreating wells of 96-well plates with fibronectin or poly-L-lysine (1 ng/well).

Jurkat cells [6] = assay: Microinjection of Alexa Fluor 594; format: cell-based, human; settings: 5 μg/mL reagent
Description: The concentration of the reagents used was 5 μg/mL.
The solutions of adhesamine (1), Type I collagen, poly-L-lysine hydrochloride, and fibronectin were prepared by diluting with PBS containing 1% (v/v) DMSO. 10 μL of each solution (1 mg/mL) was added to glass bottom culture dishes (35 mm uncoated dish). 2 mL of cell suspension in a culture medium was added to each well at a density of 2×10^5 cells/mL. After 14-hour incubation at 37° C., Alexa Fluor 594 (Molecular Probes, USA) at a concentration of 5 mg/mL was injected into Jurkat cells by using a CI-2000 automated cell injection system (Fujitsu, Japan). Success rates of the microinjection were evaluated by direct observation of the fluorescent cells through a fluorescent-microscopic window of the injection system. The data shown are means±SD for a minimum of three experiments. 20 cells were injected in each experiment.

[7] = read-out: IC50 (GAGs, 50% inhibition of adhesamine-induced cell attachment)

In the case of `Clc1nc(Cl)nc(N2CC[N+]3(CC2)CC[N+]2(CCN(c4nc(Cl)nc(Cl)n4)CC2)CC3)n1` [Compound 9], the “Jurkat cell adhesion rate (%) in 6 μM of Adhesamine” value (shortened to “Jurkat cell adhesion rate (%)”) (Jurkat cells [1]) is reported as 35 ± 5.2%.

For Hyaluronic acid, the “ability to squelch the activity of adhesamine” value ([2]; GAG added to the medium together with adhesamine) was “no detectable effect” and the IC50 [2, 7] was > 120000 nM.

`O=[N+]([O-])c1c(Cl)ncnc1N1CC[N+]2(CC1)CC[N+]1(CCN(c3ncnc(Cl)c3[N+](=O)[O-])CC1)CC2` [Compound 6] was tested, and the “Jurkat cell adhesion rate (%)” value (Jurkat cells [1]) was 22 ± 3.2%.

`CN(C)c1cccc2c(S(=O)(=O)N3CC[N+]4(CC3)CC[N+]3(CCN(S(=O)(=O)c5cccc6c(N(C)C)cccc56)CC3)CC4)cccc12` [Compound 5] was tested, and the “cell-adhesion promoting activity of adhesamine derivatives” value (“cell-adhesion promoting activity” below) (Jurkat cells [1]) was “little effect on cell adhesion” and the “localization of the fluorescent compound” value (HepG2 cells) was “no clear localization”.

Heparin [reference compound] was tested, and the “effect on adhesamine-induced ERK activation” value [3] was “blocked”, the “effect on adhesamine-induced phosphorylation of FAK” value [4] was “reduced” and the IC50 [2, 7] was 270 nM. The IC50 ([2]; read-out: IC50 (heparin oligosaccharides, 50% inhibition of adhesamine-induced cell attachment)) was 270 ± 50 nM.

In the case of `CSc1nc(Cl)c(C=NNS(=O)(=O)c2cccc3c(N(C)C)cccc23)c(N2CC[N+]3(CC2)CC[N+]2(CCN(c4nc(SC)nc(Cl)c4C=NNS(=O)(=O)c4cccc5c(N(C)C)cccc45)CC2)CC3)n1` [Compound 4], the “cell-adhesion promoting activity” value (Jurkat cells [1]) is reported as “maintained the cell-adhesion promoting activity”, the “localization of the fluorescent compound” value (HepG2 cells) is reported as “on the cell surface” and the “localization of the fluorescent probe” value (HepG2 cells; HepG2 cells treated with chondroitinase) is reported as “no impact on the cell-surface localization”. For the same compound, the “localization of the fluorescent probe” value (HepG2 cells; HepG2 cells treated with heparan sulfate-degrading enzymes) was “diffused from the cell surface”.

With `C=C1[C@@H](C)[C@H]2[C@H](Cc3ccccc3)NC(=O)[C@]23OC(=O)/C=C/[C@H](O)CCC[C@@H](C)C/C=C/[C@H]3[C@@H]1O` [cytochalasin B] the “effect on adhesamine-mediated cell adhesion” value (Jurkat cells [5]) was “inhibited”, the “effect on fibronectin-mediated cell adhesion” value (Jurkat cells [5]) was “impaired” and the “effect on cell attachment induced by poly-L-lysine” value (Jurkat cells [5]) was “no detectable effects; also recorded: hardly inhibited”.

For `COC(=O)Nc1nc2ccc(C(=O)c3cccs3)cc2[nH]1` [nocodazole], the “effect on adhesamine-mediated cell adhesion” value (Jurkat cells [5]) was “inhibited”, the “effect on fibronectin-mediated cell adhesion” value (Jurkat cells [5]) was “impaired” and the “effect on cell attachment induced by poly-L-lysine” value (Jurkat cells [5]) was “no detectable effects; also recorded: hardly inhibited”.

For `O=[N+]([O-])c1c(N2CC[N+]3(CC2)CC[N+]2(CCNCC2)CC3)ncnc1N1CC[N+]2(CC1)CC[N+]1(CCNCC1)CC2.[Cl-].[Cl-].[Cl-].[Cl-]` [Compound 7], the “Jurkat cell adhesion rate (%)” value (Jurkat cells [1]) was 21 ± 1.3%.

In the case of `CSc1nc(Cl)c(CO)c(N2CC[N+]3(CC2)CC[N+]2(CCN(c4nc(SC)nc(Cl)c4CO)CC2)CC3)n1` [Compound 3], the “cell-adhesion promoting activity” value (Jurkat cells [1]) is reported as “no impact on activity”.

`CSc1nc(Cl)c(C=O)c(N2CC[N+]3(CC2)CC[N+]2(CCN(c4ncnc(N5CC[N+]6(CC5)CC[N+]5(CCN(c7nc(SC)nc(Cl)c7C=O)CC5)CC6)c4[N+](=O)[O-])CC2)CC3)n1.[Cl-].[Cl-].[Cl-].[Cl-]` [Compound 8] was tested, and the “Jurkat cell adhesion rate (%)” value (Jurkat cells [1]) was 28 ± 4.1%.

In the case of “fibronectin: fibronectin from bovine plasma, plate-coating reagent”, the microinjection success rates (Jurkat cells [6]) is reported as “up to 30%”.

In the case of `C1C[N+]2(CCN1)CC[N+]1(CCNCC1)CC2.[Br-].[Br-]` [Compound 2, 3,12-diaza-6,9-diazoniadispiro-(5,2,5,2)-hexadecane dibromide, reference compound], the “cell-adhesion promoting activity” value (Jurkat cells [1]) is reported as “completely eliminated the activity”.

Keratan sulfate was tested, and the IC50 [2, 7] was 1030 nM.

Heparan sulfate was tested, and the IC50 [2, 7] was 790 nM.

Source: patent US8685976B2, “Cell adhesion promoting agent and method of promoting cell adhesion” (Kyoto University, priority 2008, dated 2014)
